The assay has as its target T1, adenylyl cyclase gNC1 (Giardia nucleotidyl cyclase 1).
T1 construct: catalytic domain of gNC1 (construct gNC1-301)
Briefly: adenylyl cyclase assay on enriched gNC1-301, cAMP by radiobinding protein assay; ATP kinetics. In kind it is biochemical, Giardia intestinalis.

The term IC50 denotes the concentration at which inhibition is half-maximal. A high value points to weaker potency in that assay.

For `O=C(/C=C/c1ccc(O)c(O)c1)O[C@H](Cc1ccc(O)c(O)c1)C(=O)O` [compound 3, rosmarinic acid], the IC50 came out at 10.1 ± 1.3 µM.

For the origin of these results see article PMC10935199, “Rosmarinic Acid Present in Lepechinia floribunda and Lepechinia meyenii as a Potent Inhibitor of the Adenylyl Cyclase gNC1 from Giardia lamblia” (Plants, 2024).
